Read-outs that look alike come from different tables or passages of the source.
Key:
[1] = Plasma protein binding rate (equilibrium dialysis); format: in vitro ADME; conditions: mouse plasma, equilibrium dialysis 37° C. 5 hours
Method: Test Embodiment 8. Plasma Protein Binding Rate Experiment
The purpose of this experimental method was to detect the plasma protein binding of the embodiment compounds in plasma.
The frozen plasma was thawed at room temperature or in a water bath at 37° C., then centrifuged at 3500 rpm for 5 min, and the supernatant was taken.
Preparation of compound working solution: Stock solutions were diluted with DMSO to a final concentration of 1 mM.
2.5 μL of compound working solution was added to 497.5 μL of blank plasma to a final concentration of 5 μM, shaked and mixed well.
1) The equilibrium dialysis device was prepared, and the detection membrane device was put into the equilibrium dialysis 96-well plate;
2) 200 μL of the prepared plasma solution was added to the membrane, n=2;
3) another 5 μL of plasma solution was taken, diluted 10 times with 45 μL of blank plasma of the same species, and 200 μL of acetonitrile termination solution containing internal standard was added, and stored in a −20° C. refrigerator;
4) 350 μL of dialysate (100 mM phosphate buffer) was added outside the membrane;
5) the dialysis plate was sealed and incubated in a 37° C. water bath for 5 hours;
6) after dialysis, 5 μL was taken out from the sample hole in the membrane, and diluted 10 times with 45 μL of blank plasma of the same species; 50 μL of dialysate was taken out from the sample hole outside the membrane, and 200 μL of acetonitrile termination solution containing internal standard was added;
7) the supernatant was taken after sample centrifugation;

human PD-L1 protein = target: T1, human PD-L1 protein (Homo sapiens, UniProt Q9NZQ7); assay: Thermal shift: melting temperature of PD-L1 protein; format: binding; conditions: read-out: ΔTm (° C.)
T1 construct: purchased Acro Biosystems PD1-H5229
T1 sequence (Q9NZQ7 19-238 limits assumed): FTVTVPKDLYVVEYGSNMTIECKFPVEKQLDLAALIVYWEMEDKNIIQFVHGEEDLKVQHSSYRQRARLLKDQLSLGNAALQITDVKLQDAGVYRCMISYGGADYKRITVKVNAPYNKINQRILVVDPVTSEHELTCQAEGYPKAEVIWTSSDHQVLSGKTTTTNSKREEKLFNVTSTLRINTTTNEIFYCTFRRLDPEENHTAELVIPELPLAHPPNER
Summary of the method: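 Human PD-L1 at 2 μM final was tested in […], 150 mM NaCl with SYPRO Orange, heated 25→95 °C at 0.03 °C/s in a PCR melt-curve run. Tm was taken per treatment; ΔTm is the shift relative to DMSO vehicle.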

human PD-1/PD-L1 binding = target: T2, human PD-1/PD-L1 binding (Homo sapiens, UniProt Q9NZQ7); assay: Inhibition of human PD-1/PD-L1 binding (TR-FRET/HTRF); conditions: TR-FRET, PD-L1-His and PD-1-Fc; read-out: PD-1/PD-L1 binding IC50
T2 construct: PD-L1-His protein (19 to 238 amino acids) (Abcam #ab167713); purchased Abcam (PD-L1-His); R&D (PD-1-Fc) ab167713; 1086-PD
T2 sequence (Q9NZQ7 19-238): as the sequence (Q9NZQ7 19-238 limits assumed) above
Summary of the method: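 PD-L1-His (aa 19–238, diluted to 10 nM) and PD-1-Fc (aa 25–167, diluted to 20 nM) incubated with compounds (10 μM or 1 μM top, 3-fold, 11 doses) 60 min at room temperature, then anti-6HIS Eu cryptate/anti-human IgG-XL665 added for 3 h RT or overnight 4 °C. HTRF 665/620 nm ratio gave inhibition and IC50.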

[2] = compound 10 μM, PD-L1 protein 2 μM, Tm minus DMSO vehicle control

SMILES | fraction unbound at 5 h, 5 μM [1] | ΔTm at 10 µM (human PD-L1 protein; [2]) [°C] | IC50 (human PD-1/PD-L1 binding) [nM] | ΔTm at 10 µM (human PD-L1 protein) [°C]
COc1nc(-c2cccc(-c3cccc(NC(=O)c4nc5c(n4C)CCN(C)C5)c3Cl)c2Cl)ccc1CN[C@H]1CCOC[C@@H]1O (relative stereo) [Embodiment 175, N-(2,2′-Dichloro-3′-(5-((((3,4-trans)-3-hydroxytetrahydro-2H-pyran-4-yl)amino)methyl)-6-methoxypyridin-2-yl)-[1,1′-biphenyl]-3-yl)-1,5-dimethyl-4,5,6,7-tetrahydro-1H-imidazo[4,5-c]pyridine-2-carboxamide] | 0.0052 | 18 | 4.2 | –
CNC(=O)CNCc1cnc(C(=O)Nc2cccc(-c3cccc(NC(=O)c4nc5c(n4C)CCN(C)C5)c3Cl)c2C)cc1OC [Embodiment 95, N-(2-Chloro-3′-(4-methoxy-5-(((2-(methylamino)-2-carbonylethyl)amino)methyl)picolinamido)-2′-methyl-[1,1′-biphenyl]-3-yl)-1,5-dimethyl-4,5,6,7-tetrahydro-1H-imidazo[4,5-c]pyridine-2-carboxamide] | – | 14.4 | 2.4 | –
COc1nc(-c2cccc(-c3cccc(NC(=O)c4nc5c(n4C)CCN(C)C5)c3Cl)c2Cl)ccc1CNC1COC1 [Embodiment 114, N-(2,2′-Dichloro-3′-(6-methoxy-5-((oxetan-3-ylamino)methyl)pyridin-2-yl)-[1,1′-biphenyl]-3-yl)-1,5-dimethyl-4,5,6,7-tetrahydro-1H-imidazo[4,5-c]pyridine-2-carboxamide] | 0.0033 | 17.9 | 4.3 | –
COc1nc(-c2cccc(-c3cccc(NC(=O)c4nc5c(n4C)CCN(C)C5)c3Cl)c2Cl)ccc1CN1CC(F)C1 [Embodiment 120, N-(2,2′-Dichloro-3′-(5-((3-fluoroazetidin-1-yl)methyl)-6-methoxypyridin-2-yl)-[1,1′-biphenyl]-3-yl)-1,5-dimethyl-4,5,6,7-tetrahydro-1H-imidazo[4,5-c]pyridine-2-carboxamide] | – | – | 7.4 | 15.8
COc1nc(-c2cccc(-c3cccc(NC(=O)c4nc5c(n4C)CCN(C)C5)c3Cl)c2Cl)ccc1CN1CC2(C1)CN(C(C)=O)C2 [Embodiment 123, N-(3′-(5-((6-Acetyl-2,6-diazaspiro[3.3]heptan-2-yl)methyl)-6-methoxypyridin-2-yl)-2,2′-dichloro-[1,1′-biphenyl]-3-yl)-1,5-dimethyl-4,5,6,7-tetrahydro-1H-imidazo[4,5-c]pyridine-2-carboxamide] | 0.0095 | – | 1.6 | 16.5
COc1nc(-c2cccc(-c3cccc(NC(=O)c4nc5c(n4C)CCN(C)C5)c3Cl)c2Cl)ccc1CN1CC2(COC2)C1 [Embodiment 124, N-(3′-(5-((2-Oxa-6-azaspiro[3.3]heptan-6-yl)methyl)-6-methoxypyridin-2-yl)-2,2′-dichloro-[1,1′-biphenyl]-3-yl)-1,5-dimethyl-4,5,6,7-tetrahydro-1H-imidazo[4,5-c]pyridine-2-carboxamide] | 0.0057 | 16.2 | 3.8 | –
COc1nc(-c2cccc(-c3cccc(NC(=O)c4nc5c(n4C)CCN(C)C5)c3Cl)c2Cl)ccc1CN1CC2(CCC(=O)N2)C1 [Embodiment 126, N-(2,2′-Dichloro-3′-(6-methoxy-5-((6-carbonyl-2,5-diazaspiro[3.4]octan-2-yl)methyl)pyridin-2-yl)-[1,1′-biphenyl]-3-yl)-1,5-dimethyl-4,5,6,7-tetrahydro-1H-imidazo[4,5-c]pyridine-2-carboxamide] | – | 17.1 | 2 | –
COc1nc(-c2cccc(-c3cccc(NC(=O)c4nc5c(n4C)CCN(C)C5)c3Cl)c2Cl)ccc1CNC[C@H](C)O [Embodiment 127, (S)—N-(2,2′-Dichloro-3′-(5-(((2-hydroxypropyl)amino)methyl)-6-methoxypyridin-2-yl)-[1,1′-biphenyl]-3-yl)-1,5-dimethyl-4,5,6,7-tetrahydro-1H-imidazo[4,5-c]pyridine-2-carboxamide] | – | 18.7 | 4.6 | –
COc1nc(-c2cccc(-c3cccc(NC(=O)c4nc5c(n4C)CCN(C)C5)c3Cl)c2Cl)cnc1CN1CC2(C1)CN(C(C)=O)C2 [Embodiment 152, N-(3′-(5-((6-Acetyl-2,6-diazaspiro[3.3]heptan-2-yl)methyl)-6-methoxypyrazin-2-yl)-2,2′-dichloro-[1,1′-biphenyl]-3-yl)-1,5-dimethyl-4,5,6,7-tetrahydro-1H-imidazo[4,5-c]pyridine-2-carboxamide] | 0.0181 | 16.8 | 1.3 | –
COc1nc(-c2cccc(-c3cccc(NC(=O)c4nc5c(n4C)CCN(C)C5)c3Cl)c2Cl)ccc1CN1CC(O)(CO)C1 [Embodiment 173, N-(2,2′-Dichloro-3′-(5-((3-hydroxy-3-(hydroxymethyl)azetidin-1-yl)methyl)-6-methoxypyridin-2-yl)-[1,1-biphenyl]-3-yl)-1,5-dimethyl-4,5,6,7-tetrahydro-1H-imidazo[4,5-c]pyridine-2-carboxamide] | – | 13.5 | 3 | –
COc1nc(-c2cccc(-c3cccc(NC(=O)c4nc5c(n4C)CCN(C)C5)c3Cl)c2Cl)ccc1CNC(CO)CO [Embodiment 174, N-(2,2′-Dichloro-3′-(5-(((1,3-dihydroxypropan-2-yl)amino)methyl)-6-methoxypyridin-2-yl)-[1,1′-biphenyl]-3-yl)-1,5-dimethyl-4,5,6,7-tetrahydro-1H-imidazo[4,5-c]pyridine-2-carboxamide] | – | 16.6 | 3 | –
COc1nc(-c2cccc(-c3cccc(NC(=O)c4nc5c(n4C)CCN(C)C5)c3Cl)c2Cl)ccc1CN1CC(C(=O)N(C)C)C1 [Embodiment 183, N-(2,2′-Dichloro-3′-(5-((3-(dimethylcarbamoyl)azetidin-1-yl)methyl)-6-methoxypyridin-2-yl)-[1,1′-biphenyl]-3-yl)-1,5-dimethyl-4,5,6,7-tetrahydro-1H-imidazo[4,5-c]pyridine-2-carboxamide] | – | 21 | 4.7 | –
COc1nc(-c2cccc(-c3cccc(NC(=O)c4nc5c(n4C)CCN(C)C5)c3Cl)c2Cl)ccc1CN1CC2(C1)CN(S(C)(=O)=O)C2 [Embodiment 192] | – | 14 | 9 | –
COc1nc(-c2cccc(-c3cccc(NC(=O)c4nc5c(n4C)CCN(C)C5)c3Cl)c2Cl)cnc1CN1CC(NC(C)=O)C1 [Embodiment 218, N-(3′-(5-((3-Acetylaminoazetidin-1-yl)methyl)-6-methoxypyrazin-2-yl)-2,2′-dichloro-[1,1′-biphenyl]-3-yl)-1,5-dimethyl-4,5,6,7-tetrahydro-1H-imidazo[4,5-c]pyridine-2-carboxamide] | – | 13.7 | 3.7 | –
COc1nc(-c2cccc(-c3cccc(NC(=O)c4nc5c(n4C)CCN(C)C5)c3Cl)c2Cl)ncc1CN1CC(CO)C1 [Embodiment 223, N-(2,2′-Dichloro-3′-(5-((3-(hydroxymethyl)azetidin-1-yl)methyl)-4-methoxypyrimidin-2-yl)-[1,1′-biphenyl]-3-yl)-1,5-dimethyl-4,5,6,7-tetrahydro-1H-imidazo[4,5-c]pyridine-2-carboxamide] | – | 12.3 | 2.4 | –
COc1nc(-c2cccc(-c3cccc(NC(=O)c4nc5c(n4C)CCN(C)C5)c3Cl)c2Cl)ncc1CN1CC(CNC(C)=O)C1 [Embodiment 225, N-(3′-(5-((3-(Acetylaminomethyl)azetidin-1-yl)methyl)-4-methoxypyrimidin-2-yl)-2,2′-dichloro-[1,1′-biphenyl]-3-yl)-1,5-dimethyl-4,5,6,7-tetrahydro-1H-imidazo[4,5-c]pyridine-2-carboxamide] | – | – | 4.5 | –
COc1nc(-c2cccc(-c3cccc(NC(=O)c4nc5c(n4C)CCN(C)C5)c3Cl)c2Cl)ccc1CN1CC2(CC(NC(C)=O)C2)C1 [Embodiment 234, N-(3′-(5-((6-Acetylamino-2-azaspiro[3.3]heptan-2-yl)methyl)-6-methoxypyridin-2-yl)-2,2′-dichloro-[1,1′-biphenyl]-3-yl)-1,5-dimethyl-4,5,6,7-tetrahydro-1H-imidazo[4,5-c]pyridine-2-carboxamide] | – | 15.6 | 2.5 | –

— patent publication US20230105212A1, “BIPHENYL DERIVATIVE INHIBITOR, PREPARATION METHOD THEREFOR AND USE THEREOF” (SHANGHAI HANSOH BIOMEDICAL CO., LTD., priority 2020, published 2023)
